Measurements from patent US12251382B2, “Substituted amino-pyrimidine compound for use in a method for treatment and prevention of multiple sclerosis” (Merck Patent GmbH, priority 2018, dated 2025).

Experiment: Phase I Part 2 (multiple ascending dose study): safety and tolerability, TEAEs
Format: in vivo, human
Description: The decision whether to initiate Part 2 of the study, as well as the MAD starting dose, was determined by the SMC based on review of safety data from Part 1, with PK and PD data also used to inform the decision. Dose-limiting criteria and termination/stopping rules were as per Part 1 of the study. […] Ultimately, dose levels of 25, 75, and 200 mg were selected.
Data were summarized using descriptive statistics.

[1] = Part 2, 25 mg once daily, 14 days
[2] = Part 2, 75 mg once daily, 14 days
[3] = Part 2, 200 mg once daily, 14 days
[4] = Part 2, pooled active, listed as evobrutinib

C=CC(=O)N1CCC(CNc2ncnc(N)c2-c2ccc(Oc3ccccc3)cc2)CC1 [Evobrutinib, 1-(4-(((6-amino-5-(4-phenoxyphenyl)pyrimidin-4-yl)amino)methyl)piperidin-1-yl)prop-2-en-1-one]
Relation of gastrointestinal or other TEAEs to dose (Part 2): No relation to dose was observed
Severity of TEAEs and dose-limiting adverse events (Part 2): mild and no dose-limiting adverse events were reported
Abdominal discomfort, number of TEAEs [1]: 1
Abdominal discomfort, subjects [1]: 1 (11.1) n (%)
Abdominal pain, subjects [1]: 0 (0.0) n (%)
Application site irritation, subjects [1]: 0 (0.0) n (%)
Complex regional pain, number of TEAEs [1]: 1
Complex regional pain, subjects [1]: 1 (11.1) n (%)
Constipation, subjects [1]: 0 (0.0) n (%)
Dry throat, subjects [1]: 0 (0.0) n (%)
Excoriation, number of TEAEs [1]: 1
Excoriation, subjects [1]: 1 (11.1) n (%)
Fatigue, subjects [1]: 0 (0.0) n (%)
Headache, number of TEAEs [1]: 1
Headache, subjects [1]: 1 (11.1) n (%)
Muscle spasms, subjects [1]: 0 (0.0) n (%)
Muscle strain, number of TEAEs [1]: 1
Muscle strain, subjects [1]: 1 (11.1) n (%)
Nausea, subjects [1]: 0 (0.0) n (%)
Overall total TEAEs, subjects [1]: 3 (33.3) n (%)
Overall total, number of TEAEs [1]: 6
Rhinorrhea, number of TEAEs [1]: 1
Rhinorrhea, subjects [1]: 1 (11.1) n (%)
Sneezing, subjects [1]: 0 (0.0) n (%)
Toothache, subjects [1]: 0 (0.0) n (%)
Upper respiratory tract infection, subjects [1]: 0 (0.0) n (%)
Abdominal discomfort, subjects [2]: 0 (0.0) n (%)
Abdominal pain, number of TEAEs [2]: 2
Abdominal pain, subjects [2]: 1 (11.1) n (%)
Application site irritation, number of TEAEs [2]: 1
Application site irritation, subjects [2]: 1 (11.1) n (%)
Complex regional pain, subjects [2]: 0 (0.0) n (%)
Constipation, number of TEAEs [2]: 1
Constipation, subjects [2]: 1 (11.1) n (%)
Dry throat, number of TEAEs [2]: 1
Dry throat, subjects [2]: 1 (11.1) n (%)
Excoriation, subjects [2]: 0 (0.0) n (%)
Fatigue, number of TEAEs [2]: 2
Fatigue, subjects [2]: 2 (22.2) n (%)
Headache, number of TEAEs [2]: 2
Headache, subjects [2]: 2 (22.2) n (%)
Muscle spasms, number of TEAEs [2]: 1
Muscle spasms, subjects [2]: 1 (11.1) n (%)
Muscle strain, subjects [2]: 0 (0.0) n (%)
Nausea, number of TEAEs [2]: 2
Nausea, subjects [2]: 1 (11.1) n (%)
Overall total TEAEs, subjects [2]: 7 (77.8) n (%)
Overall total, number of TEAEs [2]: 14
Rhinorrhea, subjects [2]: 0 (0.0) n (%)
Sneezing, number of TEAEs [2]: 1
Sneezing, subjects [2]: 1 (11.1) n (%)
Toothache, subjects [2]: 0 (0.0) n (%)
Upper respiratory tract infection, number of TEAEs [2]: 1
Upper respiratory tract infection, subjects [2]: 1 (11.1) n (%)
Abdominal discomfort, subjects [3]: 0 (0.0) n (%)
Abdominal pain, subjects [3]: 0 (0.0) n (%)
Application site irritation, number of TEAEs [3]: 1
Application site irritation, subjects [3]: 1 (11.1) n (%)
Complex regional pain, subjects [3]: 0 (0.0) n (%)
Constipation, subjects [3]: 0 (0.0) n (%)
Dry throat, subjects [3]: 0 (0.0) n (%)
Excoriation, subjects [3]: 0 (0.0) n (%)
Fatigue, subjects [3]: 0 (0.0) n (%)
Headache, subjects [3]: 0 (0.0) n (%)
Muscle spasms, subjects [3]: 0 (0.0) n (%)
Muscle strain, subjects [3]: 0 (0.0) n (%)
Nausea, subjects [3]: 0 (0.0) n (%)
Overall total TEAEs, subjects [3]: 3 (33.3) n (%)
Overall total, number of TEAEs [3]: 3
Rhinorrhea, subjects [3]: 0 (0.0) n (%)
Sneezing, subjects [3]: 0 (0.0) n (%)
Toothache, number of TEAEs [3]: 1
Toothache, subjects [3]: 1 (11.1) n (%)
Upper respiratory tract infection, number of TEAEs [3]: 1
Upper respiratory tract infection, subjects [3]: 1 (11.1) n (%)
Number of gastrointestinal TEAEs (Part 2, all evobrutinib doses): Seven
Subjects with fatigue (Part 2, all evobrutinib doses): 7.4%
Subjects with gastrointestinal TEAEs (Part 2, all evobrutinib doses): 18.5%
Subjects with headache (Part 2, all evobrutinib doses): 11.1%
Subjects with skin irritation due to ECG pads (Part 2, all evobrutinib doses): 7.4%
Subjects with upper respiratory tract infection (Part 2, all evobrutinib doses): 7.4%
Subjects with TEAEs (Part 2, multiple dosing, all evobrutinib doses): 48.1%
Abdominal discomfort, number of TEAEs (Part 2, pooled active): 1
Abdominal discomfort, subjects (Part 2, pooled active): 1 (3.7) n (%)
Abdominal pain, number of TEAEs (Part 2, pooled active): 2
Abdominal pain, subjects (Part 2, pooled active): 1 (3.7) n (%)
Application site irritation, number of TEAEs (Part 2, pooled active): 2
Application site irritation, subjects (Part 2, pooled active): 2 (7.4) n (%)
Complex regional pain, number of TEAEs (Part 2, pooled active): 1
Complex regional pain, subjects (Part 2, pooled active): 1 (3.7) n (%)
Constipation, number of TEAEs (Part 2, pooled active): 1
Constipation, subjects (Part 2, pooled active): 1 (3.7) n (%)
Dry throat, number of TEAEs (Part 2, pooled active): 1
Dry throat, subjects (Part 2, pooled active): 1 (3.7) n (%)
Excoriation, number of TEAEs (Part 2, pooled active): 1
Excoriation, subjects (Part 2, pooled active): 1 (3.7) n (%)
Fatigue, number of TEAEs (Part 2, pooled active): 2
Fatigue, subjects (Part 2, pooled active): 2 (7.4) n (%)
Headache, number of TEAEs (Part 2, pooled active): 3
Headache, subjects (Part 2, pooled active): 3 (11.1) n (%)
Muscle spasms, number of TEAEs (Part 2, pooled active): 1
Muscle spasms, subjects (Part 2, pooled active): 1 (3.7) n (%)
Muscle strain, number of TEAEs (Part 2, pooled active): 1
Muscle strain, subjects (Part 2, pooled active): 1 (3.7) n (%)
Nausea, number of TEAEs (Part 2, pooled active): 2
Nausea, subjects (Part 2, pooled active): 1 (3.7) n (%)
Overall total TEAEs, subjects (Part 2, pooled active): 13 (48.1) n (%)
Overall total, number of TEAEs (Part 2, pooled active): 23
Rhinorrhea, number of TEAEs (Part 2, pooled active): 1
Rhinorrhea, subjects (Part 2, pooled active): 1 (3.7) n (%)
Sneezing, number of TEAEs (Part 2, pooled active): 1
Sneezing, subjects (Part 2, pooled active): 1 (3.7) n (%)
Toothache, number of TEAEs (Part 2, pooled active): 1
Toothache, subjects (Part 2, pooled active): 1 (3.7) n (%)
Upper respiratory tract infection, number of TEAEs (Part 2, pooled active): 2
Upper respiratory tract infection, subjects (Part 2, pooled active): 2 (7.4) n (%)
Application site irritation, number of TEAEs [4]: two
Fatigue, number of TEAEs [4]: two
Headache, number of TEAEs [4]: three
Upper respiratory tract infection, number of TEAEs [4]: two
